The text below walks through data of ChEMBL document CHEMBL5729639, “FGFR4 inhibitor and preparation method and use thereof” (2023).

Each structure is given as a SMILES string.

The assay concerns the target Fibroblast growth factor receptor 1 (Homo sapiens, UniProt P11362). Put plainly: Enzymologic Experiment of FGFR1: In this experiment, the inhibitory effect of the compounds on FGFR1 kinase activity was tested by a fluorescence resonance energy transfer (TR-FRET) method, and the half maximal inhibitory concentration (IC50) of the compounds on the FGFR1 kinase activity was determined. 1) 1˜5 μL of FGFR1 enzymatic solution was added to a 384-well plate, and the final concentration of the enzyme was 0.1˜5 nM. 2) 1˜5 μL of diluted solution in gradient of the compound was added.3) 1˜5 μL of a substrate mixture containing substrate polypeptide with a final concentration of 5˜50 nM and ATP with a final concentration of 10˜200 μM was added. 4) The mixture was incubated for 0.5-3 hours at room temperature. 5) 10 μL of EDTA and a test solution comprising labeled antibody were added, and the plate was incubated for 1 hour at room temperature. 6) The fluorescence signal values of each plate were determined by a microplate reader at 665 nm. 7) The inhibition rates were calculated according to the fluorescence signal values.

Fibroblast growth factor receptor 1, sequence (P11362 whole entry): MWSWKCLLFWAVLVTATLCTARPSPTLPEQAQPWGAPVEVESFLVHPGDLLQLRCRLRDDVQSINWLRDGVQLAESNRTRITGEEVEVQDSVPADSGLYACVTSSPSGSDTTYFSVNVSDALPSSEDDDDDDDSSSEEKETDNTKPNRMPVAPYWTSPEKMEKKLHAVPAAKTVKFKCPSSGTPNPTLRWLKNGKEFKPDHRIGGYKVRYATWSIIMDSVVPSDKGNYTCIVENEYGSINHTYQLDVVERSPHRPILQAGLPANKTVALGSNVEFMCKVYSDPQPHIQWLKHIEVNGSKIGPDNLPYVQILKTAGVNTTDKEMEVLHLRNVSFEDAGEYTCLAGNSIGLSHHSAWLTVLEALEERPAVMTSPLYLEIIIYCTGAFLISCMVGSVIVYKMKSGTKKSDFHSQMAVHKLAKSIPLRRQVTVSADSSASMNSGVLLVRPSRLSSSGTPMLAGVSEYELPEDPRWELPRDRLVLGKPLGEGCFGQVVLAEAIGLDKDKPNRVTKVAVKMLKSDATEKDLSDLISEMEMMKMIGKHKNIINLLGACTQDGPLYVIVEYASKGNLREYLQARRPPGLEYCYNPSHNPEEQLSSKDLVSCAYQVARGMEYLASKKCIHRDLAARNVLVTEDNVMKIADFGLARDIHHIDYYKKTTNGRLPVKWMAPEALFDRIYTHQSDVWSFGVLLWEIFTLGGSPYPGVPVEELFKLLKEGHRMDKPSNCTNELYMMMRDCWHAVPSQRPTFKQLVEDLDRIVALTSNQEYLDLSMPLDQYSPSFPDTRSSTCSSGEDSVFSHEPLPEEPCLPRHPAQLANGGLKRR

Turning to `COCCNc1cc(NC(=O)N2CCCc3cc(CN(C=O)[C@H]4CCOC4)c(C=O)nc32)ncc1C#N`, the IC50 is above 10 µM.

Consider `COC[C@@H](C)Nc1cc(NC(=O)N2CCCc3cc(CN4CC[C@@H](OC)C4=O)c(C=O)nc32)ncc1C#N`, for which the IC50 was above 10 µM.

Consider `COCCNc1cc(NC(=O)N2CCCc3cc(CN(C=O)C[C@@H]4CCCO4)c(C=O)nc32)ncc1C#N`, for which the IC50 was above 10 µM.

In the case of `COCCNc1cc(NC(=O)N2CCCc3cc(CN(C=O)C[C@H]4CCCO4)c(C=O)nc32)ncc1C#N`, the IC50 is above 10 µM.

The IC50 is the midpoint of a concentration-inhibition curve.
